In patent EP4371976B1, “IONIZABLE LIPIDS AND LIPID NANOPARTICLES CONTAINING THEREOF” (Certest Biotec, S.L., priority 2022, dated 2024):

Key:
[1] = RNA encapsulation efficiency of LNPs by Quant-IT Ribogreen; format: physicochemical; details: for Encaps. efficiency (%): LNPs with luciferase mRNA, ionizable lipid:non-cationic lipid:sterol:PEG-modified lipid 50:10:38.5:1.5, percentage of RNA entrapped in the LNP; for Encaps. efficiency: Table 8, LNP 50:10:38.5:1.5, luciferase mRNA
Summary of the method: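 Ribogreen dye assay per manufacturer quantified encapsulated mRNA. Particles were made by adding mRNA in water to the ethanol phase, then 1:1 Tris dilution and overnight dialysis into Tris/15% sucrose; final mRNA set to 100 µg/ml.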

[2] = Size distribution, polydispersity and Z-potential of LNPs by dynamic light scattering (Malvern Zetasizer); format: physicochemical; details: LNPs, standard formulation 50:10:38.5:1.5; DLS
Protocol: The LNP solution was then adjusted to a final concentration of mRNA of 100 µg/ml. Size distribution, polydispersity and Z-potential were measured by dynamic light scattering (DLS) using Malvern Zetasizer Advance Lab Blue Label. RNA encapsulation was assessed by Quant-IT® Ribogreen following the manufacturer's instructions.

mice = assay: LNP stability over time: in vivo transfection (total flux) in mice, fresh versus stored at 4 °C; details: LNP 50:10:38.5:1.5
Protocol: Two LNPs comprising: ionizable lipid (Formula I):non-cationic lipid:sterol: PEG-modified lipid
in the ratios 50:10:38.5:1.5 were tested in order to determine their stability. Formulation A comprising VC-LC-0163 as the ionizable lipid was administered to mice and transfection efficiency measured with a fresh preparation in a first experiment, and with a preparation that had been stored for 83 days at T = 4 °C.
Formulation B comprising VC-LC-0263 as the ionizable lipid was administered to mice and transfection efficiency measured with a fresh preparation in a first experiment, and with a preparation that had been stored for 61 days at T = 4 °C.

[3] = Apparent pKa of LNPs comprising the ionizable lipid (Table 6); details: standard formulation 50:10:38.5:1.5
Female BALB/c mice = assay: Firefly luciferase expression (total flux, IVIS imaging) in mice after injection of mRNA-loaded LNPs; format: in vivo; details: for Total Flux: Table 8, mice, intramuscular, 5 µg luciferase mRNA in 50 µl, LNP 50:10:38.5:1.5
Summary of the method: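 Female BALB/c mice (8-10 weeks) received 5 µg luciferase mRNA intramuscularly in LNPs of ionizable lipid:DSPC:cholesterol:DMG-PEG2000 at 50:10:38.5:1.5 mol%, N:P 5,5:1. From 4 to 72 h, isoflurane-anaesthetized mice were given D-luciferin at 150 mg/kg i.p. IVIS images were taken 10 min later as total flux.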

HEK293T cells = details: reported by Molla et al., cited from earlier work

Encaps. efficiency (%) [1] | P.D.I. [2] | Particle size/ Ø (nm) [2] | Z Potential (± D.E.) [mV] [2] | Encaps. efficiency [1] | Apparent pKa [3] | SMILES | Total flux (p·s^-1) (mice; t = 0, fresh preparation) | Total flux (p·s^-1) (mice; t = 61 days, stored at 4 °C) | Total Flux (Female BALB/c mice) | transfection efficiency (HEK293T cells; HEK293T cells, without addition of helper lipids) | toxicity (HEK293T cells; liposomes, in vitro) | transfection (luminescence) in vivo (Female BALB/c mice; Figure 2, intramuscular injection, LNP 50:10:38.5:1.5 encapsulating luciferase mRNA)
98.61% | 0.12 | 141.7 nm | 1.90 mV | 98.61% | 7.26 | CCCCCCCCCCC(CCCCCCCC)C(=O)NC(CCSCCC(=O)OCCCCCC(C)C)C(=O)NCC1CCN(C)CC1 (centres unmarked) [VC-LC-0515] | – | – | 3.0E+07 p·s^-1 | – | – | –
59.92% | 0.16 | 190.5 nm | -13.51 mV | 59.92% | 6.06 | CCCCCCCCCCCCOC(=O)CCSCC(CC(=O)NCCCn1ccnc1)C(=O)OC(CCCCCCCC)CCCCCCCC (centres unmarked) [VC-LC-0298] | – | – | 7.6E+07 p·s^-1 | – | – | –
– | – | – | – | – | – | CCCCCCCC/C=C\CCCCCCCCC(=O)CC(CCSSCCCCCCCCCCCC)C(=O)NCCN1CCN(C)CC1 (centres unmarked) [VC-LC-0588] | – | – | – | about 95% | low toxicity | no transfection
91.49% | 0.13 | 152.6 nm | -2.43 mV | 91.49% | 7.48 | CCCCCCCCCCC(CCCCCCCC)C(=O)NC(CCSCCC(=O)OCC(CCCCCC)CCCCCCCC)C(=O)NCC1CCN(C)CC1 (centres unmarked) [VC-LC-0508] | – | – | 1.7E+08 p·s^-1 | – | – | –
46.94% | 0.18 | 193.3 nm | -11.77 mV | 46.9% | 5.80 | CCCCCCCCC(CCCCCCCC)OC(=O)C(CSCCC(=O)OCC(CC)CCCC)CC(=O)NCCCn1ccnc1 (centres unmarked) [VC-LC-0297] | – | – | 2.3E+07 p·s^-1 | – | – | –
43.89% | 0.14 | 178 nm | -15.15 mV | 43.9% | 6.11 | CCCCCCCCOC(=O)CCSCC(CC(=O)NCCCn1ccnc1)C(=O)OC(CCCCCCCC)CCCCCCCC (centres unmarked) [VC-LC-0307] | – | – | 1.47E+08 p·s^-1 | – | – | –

SMILES | Encaps. efficiency (%) [1] | P.D.I. [2] | Particle size/ Ø (nm) [2] | Z Potential (± D.E.) [mV] [2] | Encaps. efficiency [1] | Apparent pKa [3] | Total flux (p·s^-1) (mice; t = 0, fresh preparation) | Total flux (p·s^-1) (mice; t = 61 days, stored at 4 °C) | Total Flux (Female BALB/c mice) | transfection efficiency (HEK293T cells; HEK293T cells, without addition of helper lipids) | toxicity (HEK293T cells; liposomes, in vitro) | transfection (luminescence) in vivo (Female BALB/c mice; Figure 2, intramuscular injection, LNP 50:10:38.5:1.5 encapsulating luciferase mRNA)
CCCCCCCCCCCCCCCCOC(=O)CCSCCC(NC(=O)C(CCCCCC)CCCCCCCC)C(=O)NCCCn1ccnc1 (centres unmarked) [VC-LC-0263] | 60.70% | 0.13 | 188.6 nm | -17.30 mV | – | – | 1.19E+08 p·s^-1 | 5.07E+07 p·s^-1 | – | – | – | –
